In the supplement of paper PMC11061612:

Experiments:
Assay in all cases: combination Emax (second highest fraction inhibited in the dose matrix, 72 h); higher = more inhibition; extreme values may be limits of the assay
U-87-MG (Glioblastoma) = tested on: U-87-MG (Glioblastoma)
In short: (§1)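 After 24 hours at 37°C and 5% CO2 in 1536-well plates, cells in DMEM/F12 or RPMI plus 10% FBS received two-drug dose matrices for 72 hours. Viability came from CellTiter-Glo 2.0 luminescence and was scaled as inhibition, anchored at 0 by vehicle wells and at 1 by blank wells. Combination Emax is taken as the second-highest inhibition in the matrix, and Bliss excess as the observed combination effect less EA + EB − EA·EB, with EA and EB the single-agent effects.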

[1] = tested on: EMC-BAC-2 (Non-Small Cell Lung Carcinoma)
In short: as §1

[2] = tested on: H-EMC-SS (Chondrosarcoma)
In short: as §1

BT-20 (Breast Carcinoma) = tested on: BT-20 (Breast Carcinoma)
In short: as §1

[3] = tested on: KU-19-19 (Bladder Carcinoma)
In short: as §1

[4] = tested on: OCUB-M (Breast Carcinoma)
In short: as §1

[5] = tested on: NCI-H513 (Other Solid Carcinomas)
In short: as §1

[6] = tested on: HuP-T3 (Pancreatic Carcinoma)
In short: as §1

IMR-5 (Neuroblastoma) = tested on: IMR-5 (Neuroblastoma)
In short: as §1

[7] = tested on: NCI-H2347 (Lung Adenocarcinoma)
In short: as §1

[8] = tested on: NCI-H1573 (Lung Adenocarcinoma)
In short: as §1

[9] = tested on: PFSK-1 (Other Solid Carcinomas)
In short: as §1

[10] = tested on: KP-2 (Pancreatic Carcinoma)
In short: as §1

[11] = tested on: HSC-2 (Oral Cavity Carcinoma)
In short: as §1

[12] = tested on: NCI-H2405 (Lung Adenocarcinoma)
In short: as §1

[13] = tested on: KLE (Endometrial Carcinoma)
In short: as §1

[14] = tested on: DG-75 (Burkitt's Lymphoma)
In short: as §1

NB7 (Neuroblastoma) = tested on: NB7 (Neuroblastoma)
In short: as §1

[15] = tested on: SCC-3 (B-Cell Non-Hodgkin's Lymphoma)
In short: as §1

[16] = tested on: KYSE-50 (Esophageal Squamous Cell Carcinoma)
In short: as §1

| Compound | combination Emax (U-87-MG (Glioblastoma)) | combination Emax [1] | combination Emax [2] | combination Emax (BT-20 (Breast Carcinoma)) | combination Emax [3] | combination Emax [4] | combination Emax [5] | combination Emax [6] | combination Emax (IMR-5 (Neuroblastoma)) | combination Emax [7] | combination Emax [8] | combination Emax [9] | combination Emax [10] | combination Emax [11] | combination Emax [12] | combination Emax [13] | combination Emax [14] | combination Emax (NB7 (Neuroblastoma)) | combination Emax [15] | combination Emax [16] |
| --- | --- | --- | --- | --- | --- | --- | --- | --- | --- | --- | --- | --- | --- | --- | --- | --- | --- | --- | --- | --- |
| CN(CCO)CC[C@H](CSc1ccccc1)Nc1ccc(S(=O)(=O)NC(=O)c2ccc(N3CCC([C@@H](O)c4ccccc4-c4ccc(Cl)cc4)CC3)cc2)cc1S(=O)(=O)C(F)(F)F [AZD4320] + Cc1cc2ncnn2cc1Nc1ncc2c(n1)n(C1CCOCC1)c(=O)n2C [AZD7648] (first compound max 1 µM, 7x7, partner max 10 µM) | 0.311 | 0.258 | 0.524 | 0.606 | 0.119 | 0.66 | 0.269 | 0.153 | 0.738 | 0.432 | 0.135 | 0.397 | 0.857 | 0.461 | 0.186 | 0.337 | 0.472 | 0.0542 | 0.337 | 0.096 |
| Cn1cnc2c(F)c(Nc3ccc(Br)cc3Cl)c(C(=O)NOCCO)cc21 [Selumetinib] + CC(C)n1c(=O)n(C)c2cnc3cc(F)c(-c4ccc(OCCCN5CCCCC5)nc4)cc3c21 [AZD1390] (first compound max 10 µM, 7x7, partner max 0.3 µM) | 0.215 | 0.278 | 0.197 | 0.252 | 0.917 | 0.0283 | 0.22 | 0.368 | 0.173 | 0.308 | 0.264 | 0.244 | 0.463 | 0.248 | 0.364 | 0.178 | 0.277 | 0.0793 | 0.369 | 0.21 |
| CC(=O)c1c(C)c2cnc(Nc3ccc(N4CCNCC4)cn3)nc2n(C2CCCC2)c1=O [Palbociclib] + Cn1cnc2c(F)c(Nc3ccc(Br)cc3Cl)c(C(=O)NOCCO)cc21 [Selumetinib] (first compound max 10 µM, 7x7, partner max 10 µM) | 0.326 | 0.362 | 0.414 | 0.361 | 0.935 | 0.0542 | 0.305 | 0.385 | 0.612 | 0.38 | 0.565 | 0.138 | 0.376 | 0.391 | 0.428 | 0.31 | 0.723 | 0.331 | 0.503 | 0.357 |
| Cc1c2c(nn1C)CSCc1cc(n(C)n1)CSc1cc(c3ccccc3c1)OCCCc1c(C(=O)O)n(C)c3c-2c(Cl)ccc13 [AZD5991] + CN(C)CCCOc1ccc(-c2ccc3ncc4c(c3c2)n(C2CCOCC2)c(=O)n4C)cn1 [AZD0156] (first compound max 1 µM, 7x7, partner max 1 µM) | 0.253 | 0.745 | 0.431 | 0.636 | 0.253 | 0.949 | 0.228 | 0.213 | 0.985 | 0.239 | 0.394 | 0.993 | 0.18 | 0.835 | 0.228 | 0.262 | 0.395 | 0.499 | 0.396 | 0.292 |
| CC1(C)CCC(CN2CCN(c3ccc(C(=O)NS(=O)(=O)c4ccc(NCC5CCOCC5)c([N+](=O)[O-])c4)c(Oc4cnc5[nH]ccc5c4)c3)CC2)=C(c2ccc(Cl)cc2)C1 [Venetoclax] + Cc1cc2ncnn2cc1Nc1ncc2c(n1)n(C1CCOCC1)c(=O)n2C [AZD7648] (first compound max 1 µM, 7x7, partner max 10 µM) | 0.354 | 0.271 | 0.327 | 0.374 | 0.225 | 0.383 | 0.297 | 0.166 | 0.282 | 0.194 | 0.173 | 0.489 | 0.175 | 0.304 | 0.103 | 0.444 | 0.317 | 0.0987 | 0.214 | 0.217 |
| COc1nnc2ccc(N3CCC(c4ccc(OCCN5CCN(C)C(=O)[C@H]5C)cc4)CC3)nn12 [AZD5153] + CC1(C)CCC(CN2CCN(c3ccc(C(=O)NS(=O)(=O)c4ccc(NCC5CCOCC5)c([N+](=O)[O-])c4)c(Oc4cnc5[nH]ccc5c4)c3)CC2)=C(c2ccc(Cl)cc2)C1 [Venetoclax] (first compound max 1 µM, 7x7, partner max 1 µM) | 0.546 | 0.661 | 0.27 | 0.138 | 0.63 | 0.39 | 0.358 | 0.517 | 0.885 | 0.331 | 0.356 | 0.595 | 0.354 | 0.662 | 0.319 | 0.609 | 0.887 | 0.37 | 0.887 | 0.501 |
| Cc1c2c(nn1C)CSCc1cc(n(C)n1)CSc1cc(c3ccccc3c1)OCCCc1c(C(=O)O)n(C)c3c-2c(Cl)ccc13 [AZD5991] + CCN(CCO)CCCOc1ccc2c(Nc3cc(CC(=O)Nc4cccc(F)c4)[nH]n3)ncnc2c1 [AZD2811] (first compound max 1 µM, 7x7, partner max 1 µM) | 0.326 | 0.823 | 0.392 | 0.787 | 0.508 | 1 | 0.197 | 0.241 | 1 | 0.213 | 0.425 | 0.998 | 0.264 | 0.968 | 0.221 | 0.267 | 0.229 | 0.872 | 0.51 | 0.556 |
| CN(CCO)CC[C@H](CSc1ccccc1)Nc1ccc(S(=O)(=O)NC(=O)c2ccc(N3CCC([C@@H](O)c4ccccc4-c4ccc(Cl)cc4)CC3)cc2)cc1S(=O)(=O)C(F)(F)F [AZD4320] + Cn1cnc2c(F)c(Nc3ccc(Br)cc3Cl)c(C(=O)NOCCO)cc21 [Selumetinib] (first compound max 1 µM, 7x7, partner max 3 µM) | 0.278 | 0.416 | 0.691 | 0.746 | 0.937 | 0.797 | 0.398 | 0.471 | 0.994 | 0.68 | 0.4 | 0.419 | 0.962 | 0.768 | 0.572 | 0.423 | 0.206 | 0.507 | 0.546 | 0.239 |
| CS(=O)(=O)CCNCc1ccc(-c2ccc3ncnc(Nc4ccc(OCc5cccc(F)c5)c(Cl)c4)c3c2)o1 [Lapatinib] + C[C@@H](Oc1cc(-c2cnn(C3CCNCC3)c2)cnc1N)c1c(Cl)ccc(F)c1Cl [Crizotinib] (first compound max 10 µM, 7x7, partner max 10 µM) | 0.613 | 0.909 | 0.576 | 0.652 | 0.918 | 0.697 | 0.557 | 0.579 | 0.976 | 0.301 | 0.786 | 0.956 | 0.788 | 0.998 | 0.193 | 0.51 | 0.92 | 0.565 | 0.999 | 0.93 |
| CC1(C)CCC(CN2CCN(c3ccc(C(=O)NS(=O)(=O)c4ccc(NCC5CCOCC5)c([N+](=O)[O-])c4)c(Oc4cnc5[nH]ccc5c4)c3)CC2)=C(c2ccc(Cl)cc2)C1 [Venetoclax] + C1CN(CCC1(C(=O)N[C@@H](CCO)C2=CC=C(C=C2)Cl)N)C3=NC=NC4=C3C=CN4 [Capivasertib] (first compound max 1 µM, 7x7, partner max 3 µM) | 0.403 | 0.35 | 0.413 | 0.62 | 0.2 | 0.942 | 0.117 | 0.166 | 0.19 | 0.158 | 0.194 | 0.518 | 0.0692 | 0.364 | 0.187 | 0.315 | 0.179 | 0.056 | 0.131 | 0.17 |
| CC1(C)CCC(CN2CCN(c3ccc(C(=O)NS(=O)(=O)c4ccc(NCC5CCOCC5)c([N+](=O)[O-])c4)c(Oc4cnc5[nH]ccc5c4)c3)CC2)=C(c2ccc(Cl)cc2)C1 [Venetoclax] + C=CCn1c(=O)c2cnc(Nc3ccc(N4CCN(C)CC4)cc3)nc2n1-c1cccc(C(C)(C)O)n1 [AZD1775] (first compound max 1 µM, partner max 1 µM) | 0.265 | 0.404 | 0.223 | 0.672 | 0.841 | 0.754 | 0.47 | 0.399 | 0.924 | 0.291 | 0.31 | 0.72 | 0.364 | 0.833 | 0.169 | 0.51 | 0.833 | 0.722 | 0.903 | 0.647 |
| CC1(C)CCC(CN2CCN(c3ccc(C(=O)NS(=O)(=O)c4ccc(NCC5CCOCC5)c([N+](=O)[O-])c4)c(Oc4cnc5[nH]ccc5c4)c3)CC2)=C(c2ccc(Cl)cc2)C1 [Venetoclax] + C[C@@H]1COCCN1C2=NC(=NC(=C2)C3(CC3)[S@](=N)(=O)C)C4=C5C=CNC5=NC=C4 [AZD6738] (first compound max 1 µM, 7x7, partner max 10 µM) | 0.596 | 0.612 | 0.347 | 0.491 | 0.745 | 0.652 | 0.356 | 0.663 | 1 | 0.402 | 0.579 | 0.685 | 0.277 | 0.824 | 0.305 | 0.515 | 0.781 | 0.5 | 0.938 | 0.719 |
